Patent US12421252B2, “Spiro (isobenzofuranazetidine) compounds for the treatment of autoimmune disease” (Hoffmann-La Roche Inc., priority 2020, dated 2025)

Molecular target: T1, human TLR7 (Homo sapiens, UniProt Q9NYK1)
T1 sequence (Q9NYK1 27-1049): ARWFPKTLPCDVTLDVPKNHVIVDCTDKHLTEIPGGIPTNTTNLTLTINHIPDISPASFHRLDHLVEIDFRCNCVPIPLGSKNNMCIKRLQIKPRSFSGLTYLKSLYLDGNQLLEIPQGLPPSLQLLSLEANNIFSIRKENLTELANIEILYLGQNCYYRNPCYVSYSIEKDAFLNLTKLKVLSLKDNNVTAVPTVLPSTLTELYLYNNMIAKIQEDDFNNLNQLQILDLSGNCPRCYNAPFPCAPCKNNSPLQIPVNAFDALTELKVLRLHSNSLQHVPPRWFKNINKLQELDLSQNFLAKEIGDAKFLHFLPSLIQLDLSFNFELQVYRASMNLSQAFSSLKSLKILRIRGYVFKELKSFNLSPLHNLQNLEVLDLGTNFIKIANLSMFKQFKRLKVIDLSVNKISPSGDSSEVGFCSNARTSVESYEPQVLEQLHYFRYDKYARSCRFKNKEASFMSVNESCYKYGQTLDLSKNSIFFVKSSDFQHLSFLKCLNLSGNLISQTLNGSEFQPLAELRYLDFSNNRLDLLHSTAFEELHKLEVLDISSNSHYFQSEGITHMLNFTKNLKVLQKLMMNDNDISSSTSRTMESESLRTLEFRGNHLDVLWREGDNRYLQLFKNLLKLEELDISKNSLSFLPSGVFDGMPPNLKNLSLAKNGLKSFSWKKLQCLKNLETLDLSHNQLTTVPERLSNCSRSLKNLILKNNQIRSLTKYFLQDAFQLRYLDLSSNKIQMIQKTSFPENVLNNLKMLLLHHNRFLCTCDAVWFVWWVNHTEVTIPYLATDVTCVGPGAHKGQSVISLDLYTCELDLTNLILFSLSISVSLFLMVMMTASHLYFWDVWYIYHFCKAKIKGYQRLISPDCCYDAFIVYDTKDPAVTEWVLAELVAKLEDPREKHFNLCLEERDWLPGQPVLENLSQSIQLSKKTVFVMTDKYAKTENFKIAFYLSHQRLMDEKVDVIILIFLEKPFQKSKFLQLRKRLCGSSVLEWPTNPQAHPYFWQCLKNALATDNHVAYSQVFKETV
Assay: HEK293-Blue-hTLR-7 cells assay
Format: cell-based
Settings: HEK293-Blue-hTLR7 cells, R848 stimulation, 20 hrs, SEAP reporter; read-out: HEK/hTLR7 IC50
Source text: HEK293-Blue-hTLR-7 cells assay:
A stable HEK293-Blue-hTLR-7 cell line was purchased from InvivoGen (Cat. #: hkb-htlr7, San Diego, California, USA). These cells were originally designed for studying the stimulation of human TLR7 by monitoring the activation of NF-κB. A SEAP (secreted embryonic alkaline phosphatase) reporter gene was placed under the control of the IFN-β minimal promoter fused to five NF-κB and AP-1-binding sites. The SEAP was induced by activating NF-κB and AP-1 via stimulating HEK-Blue hTLR7 cells with TLR7 ligands. Therefore the reporter expression was declined by TLR7 antagonist under the stimulation of a ligand, such as R848 (Resiquimod), for incubation of 20 hrs. The cell culture supernatant SEAP reporter activity was determined using QUANTI-Blue™ kit (Cat. #: rep-qb1, Invivogen, San Diego, Ca, USA) at a wavelength of 640 nm, a detection medium that turns purple or blue in the presence of alkaline phosphatase.
HEK293-Blue-hTLR7 cells were incubated at a density of 250,000˜450,000 cells/mL in a volume of 170 μL in a 96-well plate in Dulbecco's Modified Eagle's medium (DMEM) containing 4.5 g/L glucose, 50 U/mL penicillin, […], […], 2 mM L-glutamine, 10% (v/v) heat-inactivated fetal bovine serum with addition of 20 μL test compound in a serial dilution in the presence of final DMSO at 1% and 10 μL of 20 uM R848 in above DMEM, perform incubation under 37° C. in a CO2 incubator for 20 hrs. Then 20 μL of the supernatant from each well was incubated with 180 μL Quanti-blue substrate solution at 37° C. for 2 hrs and the absorbance was read at 620˜655 nm using a spectrophotometer. The signaling pathway that TLR7 activation leads to downstream NF-κB activation has been widely accepted, and therefore similar reporter assay was modified for evaluating TLR7 antagonist.

IC50 [nM]	SMILES
23	C[C@@H]1CN(c2ccc(C#N)n3nccc23)C[C@H](CN2CC3(C2)OCc2cc(N4CC(C)(N)C4)ncc23)O1 [Example 25, 4-[(2S,6R)-2-[[6-(3-amino-3-methyl-azetidin-1-yl)spiro[1H-furo[3,4-c]pyridine-3,3′-azetidine]-1′-yl]methyl]-6-methyl-morpholin-4-yl]pyrazolo[1,5-a]pyridine-7-carbonitrile]
12	C[C@@H]1CN(c2ccc(C#N)n3ncc(F)c23)C[C@H](CN2CC3(C2)OCc2cc(N4CC(C)(N)C4)ccc23)O1 [Example 1, 4-[(2S,6R)-2-[[6-(3-amino-3-methyl-azetidin-1-yl)spiro[1H-isobenzofuran-3,3′-azetidine]-1′-yl]methyl]-6-methyl-morpholin-4-yl]-3-fluoro-pyrazolo[1,5-a]pyridine-7-carbonitrile]
13	C[C@@H]1CN(c2ccc(C#N)n3ncc(F)c23)C[C@H](CN2CC3(C2)OCc2cc(N4CC(C)(N)C4)cnc23)O1 [Example 33, 4-[(2S,6R)-2-[[3-(3-amino-3-methyl-azetidin-1-yl)spiro[5H-furo[3,4-b]pyridine-7,3′-azetidine]-1′-yl]methyl]-6-methyl-morpholin-4-yl]-3-fluoro-pyrazolo[1,5-a]pyridine-7-carbonitrile]
9	C[C@@H]1CN(c2ccc(C#N)n3ncc(F)c23)C[C@H](CN2CC3(C2)OCc2cc(N4CC5(CN(C)C5)C4)cnc23)O1 [Example 22, 3-fluoro-4-[(2R,6S)-2-methyl-6-[[3-(6-methyl-2,6-diazaspiro[3.3]heptan-2-yl)spiro[5H-furo[3,4-b]pyridine-7,3′-azetidine]-1′-yl]methyl]morpholin-4-yl]pyrazolo[1,5-a]pyridine-7-carbonitrile]
24	C[C@@H]1CN(c2ccc(C#N)n3nccc23)C[C@H](CN2CC3(C2)OCc2cc(N4CC(C)(N)C4)cnc23)O1 [Example 26, 4-[(2S,6R)-2-[[3-(3-amino-3-methyl-azetidin-1-yl)spiro[5H-furo[3,4-b]pyridine-7,3′-azetidine]-1′-yl]methyl]-6-methyl-morpholin-4-yl]pyrazolo[1,5-a]pyridine-7-carbonitrile]
7	[2H]c1ccc2c(N3C[C@H](CN4CC5(C4)OCc4cc(N6CCNCC6)ccc45)O[C@H](C)C3)ccc(C#N)c2n1 [Example 18, 2-deuterio-5-[(2R,6S)-2-methyl-6-[(6-piperazin-1-ylspiro[1H-isobenzofuran-3,3′-azetidine]-1′-yl)methyl]morpholin-4-yl]quinoline-8-carbonitrile]
10	C[C@@H]1CN(c2ccc(C#N)n3ncc(F)c23)C[C@H](CN2CC3(C2)OCc2cc(N4CC5(CN(C)C5)C4)ccc23)O1 [Example 2, 3-fluoro-4-[(2R,6S)-2-methyl-6-[[6-(6-methyl-2,6-diazaspiro[3.3]heptan-2-yl)spiro[1H-isobenzofuran-3,3′-azetidine]-1′-yl]methyl]morpholin-4-yl]pyrazolo[1,5-a]pyridine-7-carbonitrile]
10	C[C@@H]1CN(c2cc(=O)n(C)c3ncccc23)C[C@H](CN2CC3(C2)OCc2cc(N4CC(N)C4)ccc23)O1 [Example 13, 4-[(2S,6R)-2-[[6-(3-aminoazetidin-1-yl)spiro[1H-isobenzofuran-3,3′-azetidine]-1′-yl]methyl]-6-methyl-morpholin-4-yl]-1-methyl-1,8-naphthyridin-2-one]
20	C[C@@H]1CN(c2ccc(C#N)n3ncc(F)c23)C[C@H](CN2CC3(C2)OCc2cc(N[C@H]4CNC[C@H]4F)ccc23)O1 [Example 3, 3-fluoro-4-[(2S,6R)-2-[[6-[[(3S,4R)-4-fluoropyrrolidin-3-yl]amino]spiro[1H-isobenzofuran-3,3′-azetidine]-1′-yl]methyl]-6-methyl-morpholin-4-yl]pyrazolo[1,5-a]pyridine-7-carbonitrile]
19	[2H]c1ccc2c(N3C[C@H](CN4CC5(C4)OCc4cc(N6C[C@@H](N)[C@H](OC)C6)ccc45)O[C@H](C)C3)ccc(C#N)c2n1 [Example 16, 5-[(2S,6R)-2-[[6-[(3R,4R)-3-amino-4-methoxy-pyrrolidin-1-yl]spiro[1H-isobenzofuran-3,3′-azetidine]-1′-yl]methyl]-6-methyl-morpholin-4-yl]-2-deuterio-quinoline-8-carbonitrile]
15	C[C@@H]1CN(c2ccc(C#N)n3nccc23)C[C@H](CN2CC3(C2)OCc2cc(N4CC5(CNCCO5)C4)ccc23)O1 [Example 7, 4-[(2R,6S)-2-methyl-6-[[6-(5-oxa-2,8-diazaspiro[3.5]nonan-2-yl)spiro[1H-isobenzofuran-3,3′-azetidine]-1′-yl]methyl]morpholin-4-yl]pyrazolo[1,5-a]pyridine-7-carbonitrile]
7	[2H]c1ccc2c(N3C[C@H](CN4CC5(C4)OCc4cc(N6CC(C)(N)C6)cnc45)O[C@H](C)C3)ccc(C#N)c2n1 [Example 21, 5-[(2S,6R)-2-[[3-(3-amino-3-methyl-azetidin-1-yl)spiro[5H-furo[3,4-b]pyridine-7,3′-azetidine]-1′-yl]methyl]-6-methyl-morpholin-4-yl]-2-deuterio-quinoline-8-carbonitrile]
10	C[C@@H]1CN(c2ccc(C#N)n3ncc(F)c23)C[C@H](CN2CC3(C2)OCc2cc(N4CC5(CNC5)C4)ccc23)O1 [Example 12, 4-[(2S,6R)-2-[[6-(2,6-diazaspiro[3.3]heptan-2-yl)spiro[1H-isobenzofuran-3,3′-azetidine]-1′-yl]methyl]-6-methyl-morpholin-4-yl]-3-fluoro-pyrazolo[1,5-a]pyridine-7-carbonitrile]
19	C[C@@H]1CN(c2ccc(C#N)n3nccc23)C[C@H](CN2CC3(C2)OCc2cc(N4CC(N)C4)ccc23)O1 [Example 19, 4-[(2S,6R)-2-[[6-(3-aminoazetidin-1-yl)spiro[1H-isobenzofuran-3,3′-azetidine]-1′-yl]methyl]-6-methyl-morpholin-4-yl]pyrazolo[1,5-a]pyridine-7-carbonitrile]
19	C[C@@H]1CN(c2ccc(C#N)n3ncc(F)c23)C[C@H](CN2CC3(C2)OCc2cc(N4CC[C@](C)(N)C4)ccc23)O1 [Example 5, 4-[(2S,6R)-2-[[6-[(3S)-3-amino-3-methyl-pyrrolidin-1-yl]spiro[1H-isobenzofuran-3,3′-azetidine]-1′-yl]methyl]-6-methyl-morpholin-4-yl]-3-fluoro-pyrazolo[1,5-a]pyridine-7-carbonitrile]
7	[2H]c1ccc2c(N3C[C@H](CN4CC5(C4)OCc4cc(N6C[C@@H](N)[C@H](OC)C6)cnc45)O[C@H](C)C3)ccc(C#N)c2n1 [Example 31, 5-[(2S,6R)-2-[[3-[(3R,4R)-3-amino-4-methoxy-pyrrolidin-1-yl]spiro[5H-furo[3,4-b]pyridine-7,3′-azetidine]-1′-yl]methyl]-6-methyl-morpholin-4-yl]-2-deuterio-quinoline-8-carbonitrile]
15	[2H]c1ccc2c(N3C[C@H](CN4CC5(C4)OCc4cc(N6C[C@H]7NCCO[C@@H]7C6)ccc45)O[C@H](C)C3)ccc(C#N)c2n1 [Example 17, 5-[(2S,6R)-2-[[6-[(4aR,7aR)-3,4,4a,5,7,7a-hexahydro-2H-pyrrolo[3,4-b][1,4]oxazin-6-yl]spiro[1H-isobenzofuran-3,3′-azetidine]-1′-yl]methyl]-6-methyl-morpholin-4-yl]-2-deuterio-quinoline-8-carbonitrile]
